Where no end group is shown, it is not given here.
Key:
epitope peptide = test: Antibody titer (GMT) of serum of mice administered AJP001 conjugated peptide, ELISA; assay type: in vivo, mouse; settings: BALB/c mice, 0.5 mg/body intradermal with equal amount of 2% Alhydrogel, 3 times at two-week intervals; serum 6 weeks after initial administration; titer to each epitope sequence
Procedure: AJP001 conjugated peptide having one of the B cell epitope sequences of SEQ ID NOs: 1-5 was dissolved in physiological saline and intradermally administered twice to BALB/c mice (female, 6-week-old, N=5-6) at 0.5 mg/body at 2-week intervals. Blood was collected before administration and 5 weeks after the initial administration, and the antibody titer against each AJP001 conjugated peptide and the binding ability to recombinant mouse IL-23 protein (rmIL-23) were measured by the ELISA method. Specifically, a 96-well plate immobilized with an epitope peptide dissolved at 10 μg/mL in carbonate buffer was blocked with 5% skim milk/PBS, and then serum serially diluted with 5% skim milk/PBS was added, and the mixture was left standing at 4° C. overnight. After washing the wells with PBS-T, HRP-labeled anti-mouse IgG antibody (GE Healthcare) diluted with 5% skim milk/PBS was added and the mixture was shaken at room temperature for 3 hr. After washing the wells with PBS-T, TMB solution (SIGMA) was added, the wells were allowed to stand for 30 min in the dark, the reaction was stopped by adding 0.5M H2SO4, and the absorbance at 450 nm was measured using a plate reader. The serum dilution rate that gave 1/2 (OD=1.75) of the maximum absorbance was defined as the antibody titer, and the geometric mean titer: GMT was calculated from the individual values. Binding to IL-23 protein was measured by the ELISA method in the same manner as the antibody titer, using rmIL-23 (Antibodies-online GmbH) as the solid-phased antigen and goat serum for blocking.
AJP001 conjugated peptide (SEQ ID NO: 2) was dissolved in physiological saline and intradermally administered to BALB/c mice (female, 6-week-old, N=6) at 1 mg/body 3 times at two-week intervals, and blood was collected every 2 weeks until 8 weeks. The antibody titer (GMT) of all the collected sera and the binding ability to rmIL-23 of the serum at the time point of 6 weeks were measured by the ELISA method (same method as in Example 1). The antibody titer and the binding of the induced antibody to rmIL-23 at each time point are shown in FIGS. 2 (a) and (b), respectively.
AJP001 conjugated peptide (SEQ ID NOs: 6-37) was dissolved in physiological saline, mixed with an equal amount of 2% Alhydrogel (invivogen), and this was intradermally administered to BALB/c mice (female, 6-week-old, N=5-6) at 0.5 mg/body 3 times at two-week intervals. Blood was collected before administration and at the time point of 6 weeks after initial administration, and the antibody titer (GMT) to each epitope sequence and binding ability to recombinant human IL-23 protein (rhIL-23) (Peprotech) were measured by the ELISA method (same method as in Example 1). The binding to rhIL-23 was evaluated by a binding ratio to normal serum by calculating the ratio of the absorbance of a well added with normal mouse serum to the absorbance of a well added with antiserum derived from a mouse administered with each AJP001 conjugated peptide (SEQ ID NOs: 6-37). In addition, the neutralization activity of mouse antiserum was evaluated using an action on IL-17 production in rhIL-23 stimulated mouse splenocyte as an index. The spleen of normal BALB/c mouse (female, 5-week-old, N=3) was triturated using a syringe barrel and a cell strainer and washed with and suspended in HBSS (−). Erythrocytes were then removed using ACK Buffer (Thermo fisher scientific), and splenocytes were isolated. The splenocytes were prepared to 2.5×10^6 cells/mL with 10% FBS/1% penicillin/streptomycin/4 ng/mL rmIL-2-containing RPMI1640 medium (culture medium), and seeded in a 96 well plate at 100 μl/well. The antiserum (final concentration 15-fold) of the mice administered with each AJP001 conjugated peptide and rhIL-23 (final concentration 10 ng/ml) were added to the culture medium, reacted at 37° C. for 2 hr, added at 100 μL/well to a 96-well plate seeded with splenocytes, and cultured for 3 days in a 37° C./5% CO2 incubator. […]

[1] = tested on: IL-17 production in rhIL-23 stimulated mouse splenocyte; test: Neutralization activity of mouse antiserum: IL-17 production in rhIL-23 stimulated mouse splenocyte; assay type: cell-based; settings: antiserum final 15-fold, rhIL-23 10 ng/ml, 3 days culture; IL-17A/F ELISA
Procedure: (§1) AJP001 conjugated peptide (SEQ ID NOs: 6-37) was dissolved in physiological saline, mixed with an equal amount of 2% Alhydrogel (invivogen), and this was intradermally administered to BALB/c mice (female, 6-week-old, N=5-6) at 0.5 mg/body 3 times at two-week intervals. Blood was collected before administration and at the time point of 6 weeks after initial administration, and the antibody titer (GMT) to each epitope sequence and binding ability to recombinant human IL-23 protein (rhIL-23) (Peprotech) were measured by the ELISA method (same method as in Example 1). The binding to rhIL-23 was evaluated by a binding ratio to normal serum by calculating the ratio of the absorbance of a well added with normal mouse serum to the absorbance of a well added with antiserum derived from a mouse administered with each AJP001 conjugated peptide (SEQ ID NOs: 6-37). In addition, the neutralization activity of mouse antiserum was evaluated using an action on IL-17 production in rhIL-23 stimulated mouse splenocyte as an index. The spleen of normal BALB/c mouse (female, 5-week-old, N=3) was triturated using a syringe barrel and a cell strainer and washed with and suspended in HBSS (−). Erythrocytes were then removed using ACK Buffer (Thermo fisher scientific), and splenocytes were isolated. The splenocytes were prepared to 2.5×10^6 cells/mL with 10% FBS/1% penicillin/streptomycin/4 ng/mL rmIL-2-containing RPMI1640 medium (culture medium), and seeded in a 96 well plate at 100 μl/well. The antiserum (final concentration 15-fold) of the mice administered with each AJP001 conjugated peptide and rhIL-23 (final concentration 10 ng/ml) were added to the culture medium, reacted at 37° C. for 2 hr, added at 100 μL/well to a 96-well plate seeded with splenocytes, and cultured for 3 days in a 37° C./5% CO2 incubator. An untreated well and a control well to which normal mouse serum and rhIL-23 were added were provided. IL-17A/F in the culture supernatant was measured using Mouse IL-17A/F ELISA kit (R&D systems), the proportion (%) of IL-17 to normal serum was calculated from the IL-17 concentrations of untreated well (A), control well (B), and well (C) to which antiserum of the mice administered with each AJP001 conjugated peptide was added and according to the following formula, and the neutralization activity was evaluated.
Percentage of IL-17 to normal serum (%)=100×(C−A/B−A)

[2] = tested on: recombinant human IL-23 protein (rhIL-23); test: Binding of mouse antiserum to rhIL-23, ELISA; settings: rhIL-23 ELISA; antiserum of BALB/c mice 6 weeks after initial administration, 0.5 mg/body with Alhydrogel
Procedure: as §1
AJP001 conjugated peptide (SEQ ID NO: 6) was dissolved in physiological saline and intradermally administered to BALB/c mice (female, 6-week-old, N=6) at 1 mg/body 3 times at two-week intervals, and blood was collected every 2 weeks until 8 weeks. The antibody titer (GMT) of all the collected sera and the binding ability to rhIL-23 of the serum at 6 weeks were measured by the ELISA method. In FIG. 5, “*” means P<0.05.

Row | binding to IL-23 (binding ratio to normal serum) [2] | Substance | antibody titer (GMT) (epitope peptide) | neutralization activity (percentage of IL-17 to normal serum (%)) [1] [%]
1 | 4.40 | 6 (SPSQPWQR; not fully specified (N-terminus); listed as Homo sapiens) [compound 6] | 12563 | 15.8
2 | 1.40 | 7 (APSQPWQR; not fully specified (N-terminus)) [compound 7] | 5417 | 4.2
3 | 1.37 | 8 (SASQPWQR; not fully specified (N-terminus)) [compound 8] | 3485 | 1.4
4 | 1.01 | 9 (SPAQPWQR; not fully specified (N-terminus)) [compound 9] | 4683 | 4.0
5 | 1.03 | 10 (SPSAPWQR; not fully specified (N-terminus)) [compound 10] | 19795 | 0.0
6 | 1.55 | 11 (SPSQAWQR; not fully specified (N-terminus)) [compound 11] | 10441 | 8.1
7 | 1.12 | 12 (SPSQPAQR; not fully specified (N-terminus)) [compound 12] | 48594 | 3.1
8 | 1.11 | 13 (SPSQPWAR; not fully specified (N-terminus)) [compound 13] | 3215 | 4.8
9 | 1.23 | 14 (SPSQPWQA; not fully specified (N-terminus)) [compound 14] | 3331 | 8.0
10 | 1.16 | 15 (PWQRPWQR; not fully specified (N-terminus)) [compound 15] | 458 | 10
11 | 1.09 | 16 (QWQRPWQR; not fully specified (N-terminus)) [compound 16] | 201 | 3.6
12 | 1.26 | 17 (SSSQPWQR; not fully specified (N-terminus)) [compound 17] | 6096 | 1.6
13 | 1.21 | 18 (STSQPWQR; not fully specified (N-terminus)) [compound 18] | 8211 | 0.0
14 | 1.33 | 19 (SPSQSWQR; not fully specified (N-terminus)) [compound 19] | 18311 | 2.4
15 | 1.23 | 20 (SPSQTWQR; not fully specified (N-terminus)) [compound 20] | 36347 | 5.8
16 | 1.07 | 21 (SSSQSWQR; not fully specified (N-terminus)) [compound 21] | 19793 | 6.9
17 | 1.35 | 22 (SSSQTWQR; not fully specified (N-terminus)) [compound 22] | 2160 | 8.5
18 | 1.33 | 23 (STSQSWQR; not fully specified (N-terminus)) [compound 23] | 31720 | 9.4
19 | 1.20 | 24 (STSQTWQR; not fully specified (N-terminus)) [compound 24] | 126353 | 0.0
20 | 1.66 | 25 (SPSQQWQR; not fully specified (N-terminus)) [compound 25] | 285265 | 2.1
21 | 1.15 | 26 (STSQQWQR; not fully specified (N-terminus)) [compound 26] | 64652 | 0.0
22 | 1.07 | 27 (KPSQPWQR; not fully specified (N-terminus)) [compound 27] | 12615 | 72.3
23 | 1.13 | 28 (SKSQPWQR; not fully specified (N-terminus)) [compound 28] | 4324 | 42.2

Reference: patent publication US20250057928A1, “VACCINE COMPOSITION FOR INDUCING ANTI-IL-23 ANTIBODY” (OSAKA UNIVERSITY, priority 2021, published 2025)
